According to paper PMC12678798, “Discovery of an allosteric binding site for anthraquinones at the human P2X4 receptor” (Nature Communications, 2025):
Like-named read-outs stand apart in the source and are kept apart here.

Legend:
[1] = biological target: T1, human solubilized and purified P2X4-E307T receptor mutant reconstituted into nanodiscs (Homo sapiens, UniProt Q99571, E307T/N184R/N75R); experiment: Homologous competition binding vs [35S]ATPγS, purified P2X4-E307T receptor in nanodiscs; settings: 0.2 nM [35S]ATPγS; P2X4-E307T construct in nanodiscs
T1 construct: The full-length human P2X4 receptor gene was subcloned into the pFastBac1 vector; Rho1D4 (fused by GSSG linker) (C); GSSG linker + human rhinovirus 3C protease site + 10x-His (C); made in house; host or cells: Sf9 insect cells (baculovirus)
Description: (§1) Radioligand binding studies were performed according to a published procedure. […] After an incubation of 1 h at room temperature, the incubation was terminated by rapid vacuum filtration through GF/B glass fiber filters using a Brandel 48-well harvester (Brandel). The filters were rinsed three times with ice-cold Tris-HCl buffer (50 mM, pH 7.4, 3-4 mL each) to separate unbound from bound radioligand. After punching out the filters and transferring them into scintillation vials, scintillation cocktail (2.5 mL, Ultima Gold®) was added. The samples were measured after 6 h of preincubation using a liquid scintillation counter for 1 min each. All data from calcium influx assays and radioligand binding studies were analyzed using Microsoft Excel. […] KD and Bmax values from radioligand binding assays were calculated by using the “one site-homologous” equation, implemented in GraphPad Prism version 8.0. The level of significance was calculated by a one-way ANOVA with Dunnett's post hoc test, in case there was a control group, and multiple comparison was required. […] The significance levels were defined as follows: *P < 0.05, **P < 0.01, ***P < 0.001, ****P < 0.0001.

human wt P2X4 receptor = biological target: T2, human wt P2X4 receptor (Homo sapiens, UniProt Q99571); experiment: Homologous competition binding vs [35S]ATPγS, 1321N1 astrocytoma cell membranes; settings: 0.2 nM [35S]ATPγS, 1321N1 membranes
T2 construct: expressed in transfected cells
T2 sequence (Q99571 1-388): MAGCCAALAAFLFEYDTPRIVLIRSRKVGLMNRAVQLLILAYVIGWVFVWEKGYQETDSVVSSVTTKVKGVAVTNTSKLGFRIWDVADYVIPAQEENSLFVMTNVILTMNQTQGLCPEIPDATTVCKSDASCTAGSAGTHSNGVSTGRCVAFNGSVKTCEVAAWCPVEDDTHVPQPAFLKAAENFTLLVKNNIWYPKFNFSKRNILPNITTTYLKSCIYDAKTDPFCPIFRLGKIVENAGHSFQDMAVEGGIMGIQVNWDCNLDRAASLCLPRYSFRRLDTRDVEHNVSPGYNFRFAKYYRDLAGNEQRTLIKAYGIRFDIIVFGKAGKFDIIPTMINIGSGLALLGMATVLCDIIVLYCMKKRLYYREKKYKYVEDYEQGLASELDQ
Description: as §1

human P2X4 receptor [2] = system: human P2X4 receptor; design: method as in not given; settings: assay and ref not given; cited from earlier work
[3] = design: method as in not given; settings: ref not given; cited from earlier work
[4] = design: method as in not given; settings: rebuttal comparison table; ref not given; cited from earlier work
human P2X4 receptor [5] = biological target: human P2X4 receptor; design: method as in https://doi.org/10.1124/mol.114.096222; settings: patch clamp, HEK293; ref https://doi.org/10.1124/mol.114.096222; read-out: Potency (IC50 value) at the human P2X4 receptor; cited from earlier work
human P2X4 receptor [6] = biological target: human P2X4 receptor; design: method as in ref 10.1016/j.heliyon.2023.e21265; settings: SPR competition assay; ref 10.1016/j.heliyon.2023.e21265; read-out: Potency (IC50 value) at the human P2X4 receptor; cited from earlier work
mouse P2X4 receptors = system: mouse P2X4 receptors; design: method as in not given; settings: ref not given; cited from earlier work
rat P2X4 receptors = system: rat P2X4 receptors; design: method as in not given; settings: ref not given; cited from earlier work

T1 sequence (Q99571 whole entry N75R/N184R/E307T, the tested form may be a part): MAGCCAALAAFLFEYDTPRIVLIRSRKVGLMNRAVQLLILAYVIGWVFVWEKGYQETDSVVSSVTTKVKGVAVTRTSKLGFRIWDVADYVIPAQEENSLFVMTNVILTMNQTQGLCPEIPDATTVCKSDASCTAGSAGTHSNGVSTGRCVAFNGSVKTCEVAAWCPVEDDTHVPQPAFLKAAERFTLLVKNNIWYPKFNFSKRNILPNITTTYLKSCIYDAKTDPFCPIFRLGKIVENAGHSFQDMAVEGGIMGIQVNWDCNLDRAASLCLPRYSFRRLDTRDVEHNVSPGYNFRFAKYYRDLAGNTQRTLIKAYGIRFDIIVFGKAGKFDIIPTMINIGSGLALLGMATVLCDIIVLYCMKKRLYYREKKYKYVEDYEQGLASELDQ

SMILES: Nc1ncnc2c1ncn2[C@@H]1O[C@H](CO[P@](=O)(O)O[P@](=O)(O)O[P@@](=O)(O)S)[C@@H](O)[C@H]1O [ATPγS]
- Dissociation constant (KD value) [1]: 6.01 ± 0.81 nM
- Kd (human wt P2X4 receptor): 14.1 ± 2.7 nM

SMILES: NS(=O)(=O)c1cc(NC(=O)Cc2ccccc2)ccc1Oc1cccc(Cl)c1 [BAY-1797, N-4-(3-chlorophenoxy)-3-sulfamoylphenyl-2-phenylacetamide]
- Extent of receptor inhibition (no complete inhibition) (human P2X4 receptor [2]): about 80%
- Oral bioavailability [3]: orally bioavailable

SMILES: CC(C)c1cc(Br)c(NC(=O)Nc2cccnc2)c(Br)c1 [BX430]
- Lipophilicity [4]: Lipophilic
- IC50 (human P2X4 receptor [5]): 540 nM
- IC50 (human P2X4 receptor [6]): 4500 nM
- Potency at mouse compared with human P2X4 receptors (mouse P2X4 receptors): significantly weaker
- Potency at rat compared with human P2X4 receptors (rat P2X4 receptors): significantly weaker
